This note sets out measurements from patent US11168093B2, “Thienopyridine inhibitors of RIPK2” (Celgene Corporation, priority 2018, dated 2021).

pIC50: −log10 of the molar value.

Sequence of RIPK2 enzyme (O43353 whole entry): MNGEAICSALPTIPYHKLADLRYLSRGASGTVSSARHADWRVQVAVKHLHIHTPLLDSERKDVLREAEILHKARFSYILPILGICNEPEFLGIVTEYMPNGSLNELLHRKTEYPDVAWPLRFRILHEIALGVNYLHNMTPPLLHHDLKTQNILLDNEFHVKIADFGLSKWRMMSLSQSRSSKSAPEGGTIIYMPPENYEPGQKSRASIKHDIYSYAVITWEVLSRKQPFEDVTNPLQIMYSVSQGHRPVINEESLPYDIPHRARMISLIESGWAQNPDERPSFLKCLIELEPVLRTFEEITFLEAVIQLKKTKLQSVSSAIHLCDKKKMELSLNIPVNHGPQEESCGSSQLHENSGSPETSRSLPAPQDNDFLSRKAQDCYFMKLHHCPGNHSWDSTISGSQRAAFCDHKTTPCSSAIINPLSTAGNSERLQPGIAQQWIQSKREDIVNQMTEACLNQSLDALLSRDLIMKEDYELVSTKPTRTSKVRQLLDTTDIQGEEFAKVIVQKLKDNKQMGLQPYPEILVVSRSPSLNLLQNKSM

The test has as its target RIPK2 enzyme (Homo sapiens (Human), UniProt O43353). The test can be described thus: RIPK2 inhibition assay, TR-FRET LanthaScreen Tracer 199 screening assay. The class given is binding. Conditions: 5 nM RIPK2 enzyme, Tracer 199 at 50 nM, Eu-anti-His Antibody at 2 nM, 1 hour incubation. How it is done:
All data was collected using a standard TR-FRET screening assay: LanthaScreen Tracer 199 at 50 nM, Eu-anti-His Antibody at 2 nM, 5 nM RIPK2 enzyme, and 1× Kinase Reaction Buffer. There was a 1 hour incubation prior to read. TR-FRET signal of the interaction (340Ex/665Em/615Em) was read at room temperature with standard setting. Background was subtracted of wells containing no enzyme. Percent inhibition was based on uninhibited controls log (inhibitor) vs. response. Variable slope equation was used with no constraints: Log Y=Bottom+(Top−Bottom)/(1+10^((Log IC50−X)*Hill Slope)).
The compound numbers correspond to the compound numbers above.
Regarding `CC1NCCCCC1c1cc2c(Nc3c(F)cc4scnc4c3F)ccnc2s1` (single isomer, unassigned) [Example 118d, 4,6-difluoro-N-(2-(2-methylazepan-3-yl)thieno[2,3-b]pyridin-4-yl)benzo[d]thiazol-5-amine], the pIC50 was 7.70 to 8.00.

With `CC1NCCCC1c1cc2c(Nc3ccc4scnc4c3)c(F)cnc2s1` (single isomer, unassigned) [Example 119b, N-(5-fluoro-2-(2-methylpiperidin-3-yl)thieno[2,3-b]pyridin-4-yl)benzo[d]thiazol-5-amine], the pIC50 is at least 8.00.

In turn, `CC1NCCCC1c1cc2c(Nc3ccc4scnc4c3)c(F)cnc2s1` (single isomer, unassigned) [Example 119c, N-(5-fluoro-2-(2-methylpiperidin-3-yl)thieno[2,3-b]pyridin-4-yl)benzo[d]thiazol-5-amine] had a pIC50 of at least 8.00.

For the compound `CC1NCCCC1c1cc2c(Nc3ccc4scnc4c3)c(F)cnc2s1` (single isomer, unassigned) [Example 119d, N-(5-fluoro-2-(2-methylpiperidin-3-yl)thieno[2,3-b]pyridin-4-yl)benzo[d]thiazol-5-amine], the pIC50 is at most 7.30.

`CC1C(c2cc3c(Nc4ccc5scnc5c4)c(F)cnc3s2)CCCN1C` (single isomer, unassigned) [Example 120a, N-(2-(1,2-dimethylpiperidin-3-yl)-5-fluorothieno[2,3-b]pyridin-4-yl)benzo[d]-thiazol-5-amine] gave a pIC50 of 7.30 to 7.70.

`CC1C(c2cc3c(Nc4ccc5scnc5c4)c(F)cnc3s2)CCCN1C` (single isomer, unassigned) [Example 120b, N-(2-(1,2-dimethylpiperidin-3-yl)-5-fluorothieno[2,3-b]pyridin-4-yl)benzo[d]-thiazol-5-amine]: the pIC50 is at least 8.00.

In the case of `CC1C(c2cc3c(Nc4ccc5scnc5c4)c(F)cnc3s2)CCCN1C` (single isomer, unassigned) [Example 120c, N-(2-(1,2-dimethylpiperidin-3-yl)-5-fluorothieno[2,3-b]pyridin-4-yl)benzo[d]-thiazol-5-amine], the pIC50 is at least 8.00.

In turn, `CC1C(c2cc3c(Nc4ccc5scnc5c4)c(F)cnc3s2)CCCN1C` (single isomer, unassigned) [Example 120d, N-(2-(1,2-dimethylpiperidin-3-yl)-5-fluorothieno[2,3-b]pyridin-4-yl)benzo[d]-thiazol-5-amine] showed a pIC50 of at most 7.30.

`CC1NCCCC1c1cc2c(Nc3cc4ncsc4cc3F)c(F)cnc2s1` (single isomer, unassigned) [Example 122b, 6-fluoro-N-(5-fluoro-2-(2-methylpiperidin-3-yl)thieno[2,3-b]pyridin-4-yl) benzo[d]thiazol-5-amine] gave a pIC50 of 7.30 to 7.70.

The compound `CC1NCCCC1c1cc2c(Nc3cc4ncsc4cc3F)c(F)cnc2s1` (single isomer, unassigned) [Example 122c, 6-fluoro-N-(5-fluoro-2-(2-methylpiperidin-3-yl)thieno[2,3-b]pyridin-4-yl) benzo[d]thiazol-5-amine] showed a pIC50 of 7.70 to 8.00.

In turn, `CC1C(c2cc3c(Nc4cc5ncsc5cc4F)c(F)cnc3s2)CCCN1C` (single isomer, unassigned) [Example 123d, N-(2-(1,2-dimethylpiperidin-3-yl)-5-fluorothieno[2,3-b]pyridin-4-yl)-6-fluorobenzo[d]thiazol-5-amine] showed a pIC50 of 7.30 to 7.70.

Regarding `CC1NCCCC1c1cc2c(Nc3ccc4scnc4c3F)c(F)cnc2s1` (single isomer, unassigned) [Example 124a, 4-fluoro-N-(5-fluoro-2-(2-methylpiperidin-3-yl)thieno[2,3-b]pyridin-4-yl)benzo[d]thiazol-5-amine], the negative logarithm of the IC50 (pIC50) is at most 7.30.

For the compound `CC1NCCCC1c1cc2c(Nc3ccc4scnc4c3F)c(F)cnc2s1` (single isomer, unassigned) [Example 124b, 4-fluoro-N-(5-fluoro-2-(2-methylpiperidin-3-yl)thieno[2,3-b]pyridin-4-yl)benzo[d]thiazol-5-amine], the negative logarithm of the IC50 (pIC50) is at least 8.00.

`CC1NCCCC1c1cc2c(Nc3ccc4scnc4c3F)c(F)cnc2s1` (single isomer, unassigned) [Example 124c, 4-fluoro-N-(5-fluoro-2-(2-methylpiperidin-3-yl)thieno[2,3-b]pyridin-4-yl)benzo[d]thiazol-5-amine] had a pIC50 of at least 8.00.

Compound `CC1NCCCC1c1cc2c(Nc3ccc4scnc4c3F)c(F)cnc2s1` (single isomer, unassigned) [Example 124d, 4-fluoro-N-(5-fluoro-2-(2-methylpiperidin-3-yl)thieno[2,3-b]pyridin-4-yl)benzo[d]thiazol-5-amine] showed a pIC50 of at most 7.30.

In turn, `CC1C(c2cc3c(Nc4ccc5scnc5c4F)c(F)cnc3s2)CCCN1C` (single isomer, unassigned) [Example 125a, N-(2-(1,2-dimethylpiperidin-3-yl)-5-fluorothieno[2,3-b]pyridin-4-yl)-4-fluorobenzo[d]thiazol-5-amine] showed a pIC50 of at most 7.30.

The compound `CC1C(c2cc3c(Nc4ccc5scnc5c4F)c(F)cnc3s2)CCCN1C` (single isomer, unassigned) [Example 125b, N-(2-(1,2-dimethylpiperidin-3-yl)-5-fluorothieno[2,3-b]pyridin-4-yl)-4-fluorobenzo[d]thiazol-5-amine] showed a pIC50 of 7.70 to 8.00.

The compound `CC1C(c2cc3c(Nc4ccc5scnc5c4F)c(F)cnc3s2)CCCN1C` (single isomer, unassigned) [Example 125c, N-(2-(1,2-dimethylpiperidin-3-yl)-5-fluorothieno[2,3-b]pyridin-4-yl)-4-fluorobenzo[d]thiazol-5-amine] had a pIC50 of at least 8.00.

The compound `CC1C(c2cc3c(Nc4ccc5scnc5c4F)c(F)cnc3s2)CCCN1C` (single isomer, unassigned) [Example 125d, N-(2-(1,2-dimethylpiperidin-3-yl)-5-fluorothieno[2,3-b]pyridin-4-yl)-4-fluorobenzo[d]thiazol-5-amine] gave a pIC50 of at most 7.30.

The compound `CC1NCCCC1c1cc2c(Nc3c(F)cc4scnc4c3F)c(F)cnc2s1` (single isomer, unassigned) [Example 126d, 4,6-difluoro-N-(5-fluoro-2-(2-methylpiperidin-3-yl)thieno[2,3-b]pyridin-4-yl)benzo[d]thiazol-5-amine] had a pIC50 of 7.70 to 8.00.

Regarding `CC1C(c2cc3c(Nc4c(F)cc5scnc5c4F)c(F)cnc3s2)CCCN1C` (single isomer, unassigned) [Example 127a], the pIC50 was 7.30 to 7.70.

`CC1C(c2cc3c(Nc4c(F)cc5scnc5c4F)c(F)cnc3s2)CCCN1C` (single isomer, unassigned) [Example 127d]: the pIC50 is 7.70 to 8.00.

With `CC1NCCC=C1c1cc2c(Nc3ccc4scnc4c3)ccnc2s1` (stereo not drawn) [Example 1, N-(2-(2-methyl-1,2,5,6-tetrahydropyridin-3-yl)thieno[2,3-b]pyridin-4-yl)benzo[d]thiazol-5-amine], the pIC50 is at least 8.00.

The compound `CC1C(c2cc3c(Nc4ccc5scnc5c4)ccnc3s2)=CCCN1C` (stereo not drawn) [Example 2, N-(2-(1,2-dimethyl-1,2,5,6-tetrahydropyridin-3-yl)thieno[2,3-b]pyridin-4-yl)benzo[d]thiazol-5-amine] showed a pIC50 of at least 8.00.

The compound `CC1NCCCC1c1cc2c(Nc3ccc4scnc4c3)ccnc2s1` (stereo not drawn) [Example 3, N-(2-(2-methylpiperidin-3-yl)thieno[2,3-b]pyridin-4-yl)benzo[d]thiazol-5-amine] showed a pIC50 of at least 8.00.

`CC1C(c2cc3c(Nc4ccc5scnc5c4)ccnc3s2)CCCN1C` (stereo not drawn) [Example 4, N-(2-(1,2-dimethylpiperidin-3-yl)thieno[2,3-b]pyridin-4-yl)benzo[d]thiazol-5-amine]: the pIC50 is at least 8.00.

Turning to `C[C@@H]1[C@H](c2cc3c(Nc4ccc5scnc5c4)ccnc3s2)CCCN1C` [Example 4c, N-(2-(1,2-dimethylpiperidin-3-yl)thieno[2,3-b]pyridin-4-yl)benzo[d]thiazol-5-amine], the pIC50 is at least 8.00.

Regarding `C[C@H]1[C@@H](c2cc3c(Nc4ccc5scnc5c4)ccnc3s2)CCCN1C` [Example 4d, N-(2-(1,2-dimethylpiperidin-3-yl)thieno[2,3-b]pyridin-4-yl)benzo[d]thiazol-5-amine], the pIC50 is at least 8.00.

Compound `CCN1CCC=C(c2cc3c(Nc4ccc5scnc5c4)ccnc3s2)C1C` (stereo not drawn) [Example 5, N-(2-(1-ethyl-2-methyl-1,2,5,6-tetrahydropyridin-3-yl)thieno[2,3-b]pyridin-4-yl)benzo[d]thiazol-5-amine] had a pIC50 of at least 8.00.

With `CCN1CCCC(c2cc3c(Nc4ccc5scnc5c4)ccnc3s2)C1C` (stereo not drawn) [Example 6, N-(2-(1-ethyl-2-methylpiperidin-3-yl)thieno[2,3-b]pyridin-4-yl)benzo[d]thiazol-5-amine], the pIC50 is at least 8.00.

For `CC(C)N1CCC=C(c2cc3c(Nc4ccc5scnc5c4)ccnc3s2)C1C` (stereo not drawn) [Example 7, N-(2-(1-isopropyl-2-methyl-1,2,5,6-tetrahydropyridin-3-yl)thieno[2,3-b]pyridin-4-yl)benzo[d]thiazol-5-amine], the pIC50 is at least 8.00.

Regarding `CC(C)N1CCCC(c2cc3c(Nc4ccc5scnc5c4)ccnc3s2)C1C` (stereo not drawn) [Example 8, N-(2-(1-isopropyl-2-methylpiperidin-3-yl)thieno[2,3-b]pyridin-4-yl)benzo[d]thiazol-5-amine], the pIC50 was at least 8.00.

Regarding `CC(=O)N1CCC=C(c2cc3c(Nc4ccc5scnc5c4)ccnc3s2)C1C` (stereo not drawn) [Example 9, 1-(5-(4-(benzo[d]thiazol-5-ylamino)thieno[2,3-b]pyridin-2-yl)-6-methyl-3,6-dihydropyridin-1(2H)-yl)ethan-1-one], the pIC50 is 7.70 to 8.00.
